# Source: patent US8883797B2, “Metalloenzyme inhibitor compounds” (Viamet Pharmaceuticals, Inc., priority 2011, dated 2014)
# Tested on: Septoria tritici (ATCC 26517)
# Test: Minimum Inhibitory Concentration (MIC) (Septoria tritici), CLSI-based microdilution
# Assay type: cell-based
# Details: Zymoseptoria tritici, ATCC26517, 168 h; S. tritici ATCC 26517; 50% growth reduction; 7 days at 22 °C; read-out: Septoria Rating (MIC)
# Protocol: C. Minimum Inhibitory Concentration (MIC) (Septoria tritici) Compounds of the present disclosure were assessed for their ability to inhibit the growth of a common strain of the fungal plant pathogen Septoria tritici (ATCC 26517) using a procedure based on a Clinical and Laboratory Standards Institute (CLSI) microdilution assay protocol for filamentous fungi. Stock solutions of the test compounds and standards were prepared in DMSO at 6400 μg/mL. Each stock solution was used to prepare a 2-fold dilution series ranging from 16 to 0.016 μg/mL (total of 11 compound concentrations) in RPMI-1640 (Roswell Park Memorial Institute) medium containing 3-(N-morpholino)propanesulfonic acid (MOPS) buffer and 2% DMSO. A 100 μL aliquot of the dilutions was added to columns 1 (16 μg/mL compound) through 11 (0.016 μg/mL compound) of a 96-well microtiter plate. This format was replicated in a second row of the microtiter plate. Thus, each microtiter plate could include 11 concentrations of four test or control compounds replicated twice. A 100 μL aliquot of RPMI-1640/MOPS/2% DMSO medium was added to column 12 (no compound control) of the microtiter plate. A fresh culture of S. tritici was used to prepare a solution of approximately 5×10^4 colony-forming units per milliliter (cfu/mL) in RPMI/MOPS medium without DMSO. A 100 μL aliquot of this solution was added to all 96 wells in the microtiter plate. […] The assay plates were incubated at 22° C. for seven days in the dark without shaking. […] In each case of Table 3 the rating scale is as follows: […]
row,Structure (SMILES),MIC
1,"OC(Cn1cnnn1)(c1ccc(F)cc1F)C(F)(F)c1nc(Br)cs1 (centres unmarked) [Compound 2, 1-(4-Bromothiazol-2-yl)-2-(2,4-difluorophenyl)-1,1-difluoro-3-(1H-tetrazol-1-yl)propan-2-ol]",1.5 to 4 µg/mL
2,"OC(Cn1cnnn1)(c1ccc(F)cc1F)C(F)(F)c1ccc2cc(OCC(F)(F)F)ccc2n1 (centres unmarked) [Compound 19, 2-(2,4-Difluorophenyl)-1,1-difluoro-3-(1H-tetrazol-1-yl)-1-(6-(2,2,2-trifluoroethoxy)quinolin-2-yl)propan-2-ol]",0.5 to 1.5 µg/mL
3,"OC(Cn1cnnc1)(c1ccc(F)cc1F)C(F)(F)c1ccc2cc(Cl)ccc2n1 (centres unmarked) [Compound 35, 1-(6-Chloroquinolin-2-yl)-2-(2,4-difluorophenyl)-1,1-difluoro-3-(4H-1,2,4-triazol-4-yl)propan-2-ol]",1.5 to 4 µg/mL
4,"C=Cc1ccc2nc(C(F)(F)C(O)(Cn3cnnn3)c3ccc(F)cc3F)cnc2c1 (centres unmarked) [Compound 59, 2-(2,4-Difluorophenyl)-1,1-difluoro-3-(1H-tetrazol-1-yl)-1-(6-vinylquinoxalin-2-yl)propan-2-ol]",0.5 to 1.5 µg/mL
5,"OC(Cn1cnnn1)(c1ccc(F)cc1F)C(F)(F)c1cnc(-c2ccc(OCC(F)(F)F)cc2)cn1 (centres unmarked) [Compound 41, 2-(2,4-Difluorophenyl)-1,1-difluoro-3-(1H-tetrazol-1-yl)-1-(5-(4-(2,2,2-trifluoroethoxy)phenyl)pyrazin-2-yl)propan-2-ol]",≤ 0.5 µg/mL
6,"OC(Cn1cnnn1)(c1ccc(F)cc1F)C(F)(F)c1nccs1 (centres unmarked) [Compound 12, 2-(2,4-Difluorophenyl)-1,1-difluoro-3-(1H-tetrazol-1-yl)-1-(thiazol-2-yl)propan-2-ol]",> 4 µg/mL
7,"OC(Cn1cnnn1)(c1ccc(F)cc1F)C(F)(F)c1ccc2c(Cl)c(Cl)ccc2n1 (centres unmarked) [Compound 29, 1-(5,6-Dichloroquinolin-2-yl)-2-(2,4-difluorophenyl)-1,1-difluoro-3-(1H-tetrazol-1-yl)propan-2-ol]",≤ 0.5 µg/mL
8,"OC(Cn1cnnn1)(c1ccc(F)cc1F)C(F)(F)c1cnc(C#Cc2ccc(F)cc2)cn1 (centres unmarked) [Compound 50, 2-(2,4-Difluorophenyl)-1,1-difluoro-1-(5-((4-fluorophenyl)ethynyl)pyrazin-2-yl)-3-(1H-tetrazol-1-yl)propan-2-ol]",≤ 0.5 µg/mL
9,"OC(Cn1ncnn1)(c1ccc(F)cc1F)C(F)(F)c1cnc(C#Cc2ccc(F)cc2)cn1 (centres unmarked) [Compound 51, 2-(2,4-difluorophenyl)-1,1-difluoro-1-(5-((4-fluorophenyl)ethynyl)pyrazin-2-yl)-3-(2H-tetrazol-2-yl)propan-2-ol]",1.5 to 4 µg/mL
10,"OC(Cn1cnnn1)(c1ccc(F)cc1F)C(F)(F)c1cnc(-c2ccc(F)c(F)c2)cn1 (centres unmarked) [Compound 44, 2-(2,4-Difluorophenyl)-1-(5-(3,4-difluorophenyl)pyrazin-2-yl)-1,1-difluoro-3-(1H-tetrazol-1-yl)propan-2-ol]",0.5 to 1.5 µg/mL
11,"OC(Cn1cnnn1)(c1ccc(F)cc1F)C(F)(F)c1cnc(-c2ccc(Cl)cc2)cn1 (centres unmarked) [Compound 40, 1-(5-(4-Chlorophenyl)pyrazin-2-yl)-2-(2,4-difluorophenyl)-1,1-difluoro-3-(1H-tetrazol-1-yl)propan-2-ol]",0.5 to 1.5 µg/mL
12,"COc1ccc(C(O)(Cn2cnnn2)C(F)(F)c2ccc3cc(Cl)ccc3n2)cc1 (centres unmarked) [Compound 15, 1-(6-Chloroquinolin-2-yl)-1,1-difluoro-2-(4-methoxyphenyl)-3-(1H-tetrazol-1-yl)propan-2-ol]",1.5 to 4 µg/mL
13,"OC(Cn1cnnn1)(c1ccc(F)cc1F)C(F)(F)c1ccc(-c2ccc(F)cc2)cc1 (centres unmarked) [Compound 61, 2-(2,4-Difluorophenyl)-1,1-difluoro-1-(4′-fluoro-[1,1′-biphenyl]-4-yl)-3-(1H-tetrazol-1-yl)propan-2-ol]",0.5 to 1.5 µg/mL
14,"OC(Cn1ncnn1)(c1ccc(F)cc1F)C(F)(F)c1cnc(-c2ccc(F)cc2)cn1 (centres unmarked) [Compound 47, 2-(2,4-Difluorophenyl)-1,1-difluoro-1-(5-(4-fluorophenyl)pyrazin-2-yl)-3-(2H-tetrazol-2-yl)propan-2-ol]",> 4 µg/mL
15,"OC(Cn1cnnn1)(c1ccc(C(F)(F)F)cc1F)C(F)(F)c1ccc2cc(Cl)ccc2n1 (centres unmarked) [Compound 20, 1-(6-Chloroquinolin-2-yl)-1,1-difluoro-2-(2-fluoro-4-(trifluoromethyl)phenyl)-3-(1H-tetrazol-1-yl)propan-2-ol]",0.5 to 1.5 µg/mL
16,"OC(Cn1cnnn1)(c1ccc(F)cc1F)C(F)(F)c1ccc2c(Cl)cccc2n1 (centres unmarked) [Compound 31, 1-(5-Chloroquinolin-2-yl)-2-(2,4-difluorophenyl)-1,1-difluoro-3-(1H-tetrazol-1-yl)propan-2-ol]",1.5 to 4 µg/mL

row,Structure (SMILES),MIC
1,"OC(Cn1ncnn1)(c1ccc(F)cc1F)C(F)(F)c1cnc(CCc2ccc(F)cc2)cn1 (centres unmarked) [Compound 53, 2-(2,4-Difluorophenyl)-1,1-difluoro-1-(5-(4-fluorophenethyl)pyrazin-2-yl)-3-(2H-tetrazol-2-yl)propan-2-ol]",1.5 to 4 µg/mL
2,"OC(Cn1cnnn1)(c1ccc(F)cc1F)C(F)(F)c1cnc2cc(F)ccc2n1 (centres unmarked) [Compound 55, 2-(2,4-Difluorophenyl)-1,1-difluoro-1-(6-fluoroquinoxalin-2-yl)-3-(1H-tetrazol-1-yl)propan-2-ol]",1.5 to 4 µg/mL
3,"OC(Cn1cnnn1)(c1ccc(F)cc1F)C(F)(F)c1cnc2cc(Cl)ccc2n1 (stereo not drawn) [10(−), 1-(6-Chloroquinoxalin-2-yl)-2-(2,4-difluorophenyl)-1,1-difluoro-3-(1H-tetrazol-1-yl)propan-2-ol]",≤ 0.5 µg/mL
4,"OC(Cn1ncnn1)(c1ccc(F)cc1F)C(F)(F)c1ccc2cc(Cl)ccc2n1 (centres unmarked) [Compound 16, 1-(6-Chloroquinolin-2-yl)-2-(2,4-difluorophenyl)-1,1-difluoro-3-(2H-tetrazol-2-yl)propan-2-ol]",0.5 to 1.5 µg/mL
5,"OC(Cn1cnnn1)(c1ccc(F)cc1F)C(F)(F)c1ccc(-c2ccc(OCC(F)(F)F)cc2)cc1 (centres unmarked) [Compound 60, 2-(2,4-Difluorophenyl)-1,1-difluoro-3-(1H-tetrazol-1-yl)-1-(4′-(2,2,2-trifluoroethoxy)biphenyl-4-yl)propan-2-ol]",1.5 to 4 µg/mL
6,"OC(Cn1cnnn1)(c1ccc(F)cc1F)C(F)(F)c1nc2ccccc2s1 (centres unmarked) [Compound 6, 1-(Benzo[d]thiazol-2-yl)-2-(2,4-difluorophenyl)-1,1-difluoro-3-(1H-tetrazol-1-yl)propan-2-ol]",≤ 0.5 µg/mL
7,"OC(Cn1cnnn1)(c1ccc(F)cc1)C(F)(F)c1cnc(-c2ccc(OC(F)(F)F)cc2)cn1 (centres unmarked) [Compound 45, 1,1-Difluoro-2-(4-fluorophenyl)-3-(1H-tetrazol-1-yl)-1-(5-(4-(trifluoromethoxy)phenyl)pyrazin-2-yl)propan-2-ol]",1.5 to 4 µg/mL
8,"N#Cc1ccc2nc(C(F)(F)C(O)(Cn3cnnn3)c3ccc(F)cc3F)ccc2c1 (centres unmarked) [Compound 24, 2-(2-(2,4-Difluorophenyl)-1,1-difluoro-2-hydroxy-3-(1H-tetrazol-1-yl)propyl)quinoline-6-carbonitrile]",≤ 0.5 µg/mL
9,"OC(Cn1cnnn1)(c1ccc(F)cc1F)C(F)(F)c1cnc(-c2ccc(F)cc2)cn1 (centres unmarked) [Compound 46, 2-(2,4-Difluorophenyl)-1,1-difluoro-1-(5-(4-fluorophenyl)pyrazin-2-yl)-3-(1H-tetrazol-1-yl)propan-2-ol]",0.5 to 1.5 µg/mL
10,"OC(Cn1cnnn1)(c1ccc(F)cc1F)C(F)(F)c1cnc2cc(OC(F)(F)F)ccc2n1 (centres unmarked) [Compound 54, 2-(2,4-Difluorophenyl)-1,1-difluoro-3-(1H-tetrazol-1-yl)-1-(6-(trifluoromethoxy)quinoxalin-2-yl)propan-2-ol]",1.5 to 4 µg/mL
11,"OC(Cn1cnnn1)(c1ccc(Cl)cc1F)C(F)(F)c1ccc2cc(Cl)ccc2n1 (stereo not drawn) [8(−), 2-(4-Chloro-2-fluorophenyl)-1-(6-chloroquinolin-2-yl)-1,1-difluoro-3-(1H-tetrazol-1-yl)propan-2-ol]",≤ 0.5 µg/mL
12,"OC(Cn1cnnn1)(c1ccc(F)cc1F)C(F)(F)c1ccc2c(OCC(F)(F)F)cccc2n1 (centres unmarked) [Compound 30, 2-(2,4-Difluorophenyl)-1,1-difluoro-3-(1H-tetrazol-1-yl)-1-(5-(2,2,2-trifluoroethoxy)quinolin-2-yl)propan-2-ol]",1.5 to 4 µg/mL
13,"OC(Cn1cnnn1)(c1ccc(F)cc1F)C(F)(F)c1cccs1 (centres unmarked) [Compound 14, 2-(2,4-Difluorophenyl)-1,1-difluoro-3-(1H-tetrazol-1-yl)-1-(thiophen-2-yl)propan-2-ol]",0.5 to 1.5 µg/mL
14,"OC(Cn1cnnn1)(c1ccc(C(F)(F)F)cc1Cl)C(F)(F)c1ccc2cc(Cl)ccc2n1 (centres unmarked) [Compound 22, 2-(2-Chloro-4-(trifluoromethyl)phenyl)-1-(6-chloroquinolin-2-yl)-1,1-difluoro-3-(1H-tetrazol-1-yl)propan-2-ol]",1.5 to 4 µg/mL
15,"OC(Cn1cnnn1)(c1ccc(F)c(F)c1)C(F)(F)c1ccc2cc(Cl)ccc2n1 (centres unmarked) [Compound 23, 1-(6-Chloroquinolin-2-yl)-2-(3,4-difluorophenyl)-1,1-difluoro-3-(1H-tetrazol-1-yl)propan-2-ol]",≤ 0.5 µg/mL
16,"OC(Cn1cnnn1)(c1ccc(F)cc1F)C(F)(F)c1ccc(-c2ccc(F)cc2)nn1 (centres unmarked) [Compound 58, 2-(2,4-Difluorophenyl)-1,1-difluoro-1-(6-(4-fluorophenyl)pyridazin-3-yl)-3-(1H-tetrazol-1-yl)propan-2-ol]",1.5 to 4 µg/mL
